Each block holds one compound with its values, some of them ahead of it. Active and inactive are the calls of the source.
Key:
[1] = biological target: NS3 (Hepatitis C virus, UniProt A3EZJ3); assay: PubChem AID 2173; design: species or system Hepacivirus hominis
[2] = test system: Vero; assay: viability of Vero cells under compound – cytotoxicity control for flavivirus capping enzyme inhibitors (AID 588742); format: functional; settings: Chlorocebus sabaeus
[3] = Late-stage probe development counterscreen for inhibitors of the Hepatitis C Virus non-structural protein 3 helicase (NS3): luminescence-based cell-based dose response assay to determine whether compounds that inhibit replication of HCV RNA replicon are cytotoxic. [Related pubchem assays (depositor defined):AID1800, AID1830, AID1845, AID1943, AID1945, AID2172, AID2173, AID2474, AID2476]; format: functional
[4] = biological target: Genome polyprotein (dengue virus type 2, UniProt P29990); assay: flavivirus cap methylation enzyme inhibition – biochemical, confirmation dose response, primary screen (AID 588689); format: functional
[5] = biological target: T1, Low molecular weight phosphotyrosine protein phosphatase (Homo sapiens, UniProt P24666); format: functional; settings: read-out: IC50_Mean
T1 sequence (P24666 whole entry): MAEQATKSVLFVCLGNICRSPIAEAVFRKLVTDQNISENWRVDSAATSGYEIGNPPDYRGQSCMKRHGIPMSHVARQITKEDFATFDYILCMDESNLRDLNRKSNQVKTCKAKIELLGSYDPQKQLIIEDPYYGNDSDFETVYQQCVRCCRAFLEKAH

[6] = biological target: T2, Probable nicotinate-nucleotide adenylyltransferase (Staphylococcus aureus (strain N315), UniProt P65502); format: functional, Staphylococcus aureus subsp. aureus N315;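 on IC50 Mean: confirmatory dose-response retesting of NadD inhibitor hits first found in an ultra-high-throughput screen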
[7] = biological target: T2, Probable nicotinate-nucleotide adenylyltransferase; format: functional, Staphylococcus aureus subsp. aureus N315; settings: read-out: IC50_Mean
[8] = biological target: T1, Low molecular weight phosphotyrosine protein phosphatase; format: functional; settings: read-out: IC50_Mean; remark: listed apart in the source
[9] = biological target: NAD-dependent protein deacylase sirtuin-5, mitochondrial (Homo sapiens, UniProt Q9NXA8); assay: sirtuin-5 deacylation blockers, concentration series – biochemical, fluorescence imaging, cherry-pick, set 5, dose response (AID 720591);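 further: desuccinylation of succinyl peptide AMC substrate read as fluorescence after trypsin release; potency of inhibitors that lower fluorescence and may act on trypsin instead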
[10] = biological target: T3, Microphthalmia-associated transcription factor (Homo sapiens, UniProt O75030); assay: reducers of TRPM1 reporter luminescence, concentration series – cell-based, SK-MEL-5, cherry-picked, set 3, MITF inhibitor project, dose response (AID 493073); format: functional;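 further: SK-MEL-5 melanoma cells with luciferase driven by the MITF target TRPM1 promoter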
T3 sequence (O75030 whole entry): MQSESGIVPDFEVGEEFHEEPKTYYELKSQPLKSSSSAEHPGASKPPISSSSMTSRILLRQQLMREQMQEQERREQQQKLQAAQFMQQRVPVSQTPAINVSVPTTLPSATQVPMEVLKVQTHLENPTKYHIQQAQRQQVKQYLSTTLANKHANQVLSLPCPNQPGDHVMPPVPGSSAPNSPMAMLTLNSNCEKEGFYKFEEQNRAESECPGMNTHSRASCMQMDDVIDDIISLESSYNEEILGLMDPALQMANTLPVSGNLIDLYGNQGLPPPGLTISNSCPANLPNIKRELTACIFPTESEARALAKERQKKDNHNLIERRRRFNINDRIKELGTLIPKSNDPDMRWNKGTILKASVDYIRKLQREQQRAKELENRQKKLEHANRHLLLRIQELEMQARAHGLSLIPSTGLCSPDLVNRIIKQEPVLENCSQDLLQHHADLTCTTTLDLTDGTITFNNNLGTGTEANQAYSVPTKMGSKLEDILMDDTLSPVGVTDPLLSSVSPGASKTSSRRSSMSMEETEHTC

[11] = test system: A-375; assay: MITF: Counter assay: A375 proliferation Measured in Cell-Based System Using Plate Reader - 2084-03_Inhibitor_Dose_DryPowder_Activity. [Related pubchem assays (depositor defined):AID488944]; format: functional; settings: Homo sapiens
[12] = test system: Streptococcus sp. 'group A'; assay: Streptococcus pyogenes SK(-)GAS viability under kanamycin – luminescence, BacTiterGlo, confirmation, counter-screen for streptokinase expression inhibitor project, dose response (AID 1900); format: functional, organism-based
[13] = biological target: Induced myeloid leukemia cell differentiation protein Mcl-1 (Homo sapiens, UniProt Q07820); assay: blockers of MCL1 binding to BIM peptide – biochemical, fluorescence polarization, BIM-BH3 peptide, 1536-well, dose response (AID 2217)
[14] = biological target: Bcl-2-like protein 1 (Homo sapiens, UniProt Q07817); assay: blockers of BCLXL peptide binding – biochemical, fluorescence polarization, 1536-well, selectivity assay for MCL1 inhibitor project, dose response (AID 2218)
[15] = test system: Streptococcus; assay: GAS UMAA2166 growth inhibition – luminescence, BacTiterGlo, counter-screen for streptokinase expression inhibitor project, dose response (AID 1915); format: functional, organism-based;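 further: potency for reduction of bacterial viability or growth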
[16] = test system: Salmon testes DNA; assay: acridine orange-DNA binding displacement – biochemical, fluorescence polarization, cherry-picked samples, set 2, artefact control for KSHV LANA DNA-binding inhibitor project, dose response (AID 504727); design: species or system Salmonidae
[17] = biological target: T4, ORF 73 (Human herpesvirus 8, UniProt O40947); assay: KSHV LANA DNA-binding disruption – biochemical, fluorescence polarization, cherry-picked samples, dose response (AID 504725); design: species or system Human gammaherpesvirus 8;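 further: fluorescence polarization of a labeled DNA duplex reporting LANA DNA binding; potency is for inhibitors that block LANA binding to the DNA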
T4 sequence (O40947 whole entry): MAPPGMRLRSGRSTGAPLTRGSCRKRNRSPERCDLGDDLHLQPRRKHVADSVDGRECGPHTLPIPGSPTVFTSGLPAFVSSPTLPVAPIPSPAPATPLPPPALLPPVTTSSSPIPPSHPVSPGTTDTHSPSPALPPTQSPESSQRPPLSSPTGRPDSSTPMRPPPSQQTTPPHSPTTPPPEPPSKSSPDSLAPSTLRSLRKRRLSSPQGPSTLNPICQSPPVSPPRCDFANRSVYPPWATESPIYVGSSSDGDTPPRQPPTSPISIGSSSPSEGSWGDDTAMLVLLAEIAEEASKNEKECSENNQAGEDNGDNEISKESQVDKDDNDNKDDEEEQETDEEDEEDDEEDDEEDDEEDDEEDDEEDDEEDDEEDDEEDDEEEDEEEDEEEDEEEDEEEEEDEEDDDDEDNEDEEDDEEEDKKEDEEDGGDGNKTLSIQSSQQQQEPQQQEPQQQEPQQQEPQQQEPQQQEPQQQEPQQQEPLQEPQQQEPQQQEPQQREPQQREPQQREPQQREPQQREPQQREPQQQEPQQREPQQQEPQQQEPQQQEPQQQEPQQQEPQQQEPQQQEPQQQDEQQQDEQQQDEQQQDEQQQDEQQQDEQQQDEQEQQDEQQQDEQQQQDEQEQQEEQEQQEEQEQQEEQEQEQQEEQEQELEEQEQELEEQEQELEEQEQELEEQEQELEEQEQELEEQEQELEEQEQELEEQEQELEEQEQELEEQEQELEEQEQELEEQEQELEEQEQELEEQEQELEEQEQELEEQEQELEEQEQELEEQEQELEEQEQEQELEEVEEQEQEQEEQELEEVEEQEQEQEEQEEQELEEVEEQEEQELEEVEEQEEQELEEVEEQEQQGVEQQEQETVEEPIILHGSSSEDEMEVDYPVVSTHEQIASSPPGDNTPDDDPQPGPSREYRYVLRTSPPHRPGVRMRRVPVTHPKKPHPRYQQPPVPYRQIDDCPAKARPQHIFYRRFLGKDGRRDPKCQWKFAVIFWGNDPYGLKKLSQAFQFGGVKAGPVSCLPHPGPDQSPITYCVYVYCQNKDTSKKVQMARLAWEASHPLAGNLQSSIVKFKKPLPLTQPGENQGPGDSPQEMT

[18] = biological target: T5, Rac GTPase-activating protein 1 (Homo sapiens, UniProt Q9H0H5); assay: blockers of MgcRacGAP-driven Rac1 GTP hydrolysis – biochemical, ADP Hunter fluorescence, primary and confirmatory, confirmation (AID 624330); format: functional
T5 sequence (Q9H0H5 whole entry): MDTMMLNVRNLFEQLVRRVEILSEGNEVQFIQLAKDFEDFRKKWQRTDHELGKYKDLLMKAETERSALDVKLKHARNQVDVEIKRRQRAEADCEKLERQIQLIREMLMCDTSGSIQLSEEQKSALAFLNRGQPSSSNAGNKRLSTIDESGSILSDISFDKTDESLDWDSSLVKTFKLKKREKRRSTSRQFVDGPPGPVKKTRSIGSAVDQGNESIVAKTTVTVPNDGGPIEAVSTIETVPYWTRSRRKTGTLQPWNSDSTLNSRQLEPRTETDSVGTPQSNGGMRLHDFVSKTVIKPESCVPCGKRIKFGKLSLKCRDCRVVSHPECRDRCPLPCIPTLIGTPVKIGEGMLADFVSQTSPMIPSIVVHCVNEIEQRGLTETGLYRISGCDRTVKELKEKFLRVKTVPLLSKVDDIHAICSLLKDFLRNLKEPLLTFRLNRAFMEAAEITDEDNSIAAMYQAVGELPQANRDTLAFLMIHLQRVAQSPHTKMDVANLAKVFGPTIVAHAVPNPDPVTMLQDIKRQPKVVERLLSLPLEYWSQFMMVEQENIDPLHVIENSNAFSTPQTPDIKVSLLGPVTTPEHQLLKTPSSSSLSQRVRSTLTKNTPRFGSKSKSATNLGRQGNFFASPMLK

[19] = blockers of HIV-1 envelope-mediated cell-cell fusion – cherry-pick, dose response (AID 652057); format: functional, cell-based
[20] = blockers of HIV-1 ZM109 envelope-driven cell-cell fusion – HeLa effector, CEM target cells, luciferase, cherry-pick, dose response (AID 652058); format: functional, cell-based;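 further: luciferase signal from HIV-1 Env mediated cell-cell fusion of effector and target cells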
[21] = off-target signal loss in HeLa-CEM21 co-culture – HeLa F-luc CTL cells, cherry-picked, counter-screen for HIV-1 Env fusion inhibitor project, dose response (AID 652040); format: functional, cell-based;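 further: potency for signal decrease marking cytotoxic or nonspecific inhibition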
[22] = HIV-1 AD8 envelope cell-cell fusion blockers – cherry-pick, dose response (AID 652062); format: functional, cell-based;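 further: luciferase signal from cell-cell fusion driven by HIV-1 clade B AD8 Env; potency is for inhibitors of fusion seen as a drop in luminescence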
[23] = viability loss in THP-1 monocytes – THP-1 cells, cytotoxicity control for Vif-APOBEC3G degradation inhibitor project, dose response (AID 1117359); format: functional; settings: THP-1
[24] = test system: Escherichia coli; assay: microbe, parasite or virus in culture
[25] = test system: Escherichia coli; assay: microbe, parasite or virus in culture; remark: listed apart in the source
[26] = test system: Candida albicans; assay: resistant Candida growth with fluconazole co-treatment – CaCi-8 strain, Alamar Blue, dry powder, set 2, dose response (AID 488909); format: functional, organism-based

Chain of NS3 (A3EZJ3 whole entry): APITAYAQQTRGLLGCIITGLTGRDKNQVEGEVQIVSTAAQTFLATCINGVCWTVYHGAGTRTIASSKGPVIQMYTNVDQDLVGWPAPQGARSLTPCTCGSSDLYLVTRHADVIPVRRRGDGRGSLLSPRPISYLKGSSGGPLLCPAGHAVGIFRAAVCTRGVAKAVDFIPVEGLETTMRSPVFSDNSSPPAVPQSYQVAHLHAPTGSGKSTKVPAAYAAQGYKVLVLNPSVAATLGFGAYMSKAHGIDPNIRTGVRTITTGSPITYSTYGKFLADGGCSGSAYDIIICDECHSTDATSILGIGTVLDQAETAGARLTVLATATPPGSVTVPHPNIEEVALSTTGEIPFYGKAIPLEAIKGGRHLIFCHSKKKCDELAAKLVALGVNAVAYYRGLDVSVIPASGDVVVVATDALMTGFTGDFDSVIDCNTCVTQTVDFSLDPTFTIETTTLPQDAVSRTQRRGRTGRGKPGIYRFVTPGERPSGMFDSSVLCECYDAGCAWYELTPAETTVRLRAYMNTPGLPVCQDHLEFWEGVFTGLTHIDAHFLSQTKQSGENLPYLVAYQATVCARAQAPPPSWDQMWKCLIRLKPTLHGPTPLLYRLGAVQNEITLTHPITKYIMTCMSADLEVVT
Chain of Bcl-2-like protein 1 (Q07817 whole entry): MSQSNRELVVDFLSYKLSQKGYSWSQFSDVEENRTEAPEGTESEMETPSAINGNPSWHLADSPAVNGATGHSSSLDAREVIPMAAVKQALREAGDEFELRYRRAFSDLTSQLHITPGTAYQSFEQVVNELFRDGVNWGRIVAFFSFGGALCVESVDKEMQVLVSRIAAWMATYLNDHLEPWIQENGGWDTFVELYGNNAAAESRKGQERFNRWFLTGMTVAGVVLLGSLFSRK
Chain of NAD-dependent protein deacylase sirtuin-5, mitochondrial (Q9NXA8 whole entry): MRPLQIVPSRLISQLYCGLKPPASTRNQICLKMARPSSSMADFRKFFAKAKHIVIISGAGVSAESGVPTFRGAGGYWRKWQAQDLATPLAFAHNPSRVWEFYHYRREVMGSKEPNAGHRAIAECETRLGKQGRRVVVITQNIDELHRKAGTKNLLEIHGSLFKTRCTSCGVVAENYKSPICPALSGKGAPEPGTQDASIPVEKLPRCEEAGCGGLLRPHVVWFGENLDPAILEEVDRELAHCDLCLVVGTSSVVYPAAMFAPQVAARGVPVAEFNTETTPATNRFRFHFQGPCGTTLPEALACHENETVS
Chain of Induced myeloid leukemia cell differentiation protein Mcl-1 (Q07820 whole entry): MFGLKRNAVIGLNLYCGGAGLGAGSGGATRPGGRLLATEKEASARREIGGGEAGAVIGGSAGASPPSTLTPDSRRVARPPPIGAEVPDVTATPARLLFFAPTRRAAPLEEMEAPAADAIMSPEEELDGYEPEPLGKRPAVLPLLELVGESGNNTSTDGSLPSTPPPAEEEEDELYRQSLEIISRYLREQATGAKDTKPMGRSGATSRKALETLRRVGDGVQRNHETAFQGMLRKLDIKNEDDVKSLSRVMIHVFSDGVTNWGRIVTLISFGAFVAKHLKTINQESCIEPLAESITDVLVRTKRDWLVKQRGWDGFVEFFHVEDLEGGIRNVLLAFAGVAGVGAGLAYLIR
Chain of Genome polyprotein (P29990 2492-3391 limits assumed): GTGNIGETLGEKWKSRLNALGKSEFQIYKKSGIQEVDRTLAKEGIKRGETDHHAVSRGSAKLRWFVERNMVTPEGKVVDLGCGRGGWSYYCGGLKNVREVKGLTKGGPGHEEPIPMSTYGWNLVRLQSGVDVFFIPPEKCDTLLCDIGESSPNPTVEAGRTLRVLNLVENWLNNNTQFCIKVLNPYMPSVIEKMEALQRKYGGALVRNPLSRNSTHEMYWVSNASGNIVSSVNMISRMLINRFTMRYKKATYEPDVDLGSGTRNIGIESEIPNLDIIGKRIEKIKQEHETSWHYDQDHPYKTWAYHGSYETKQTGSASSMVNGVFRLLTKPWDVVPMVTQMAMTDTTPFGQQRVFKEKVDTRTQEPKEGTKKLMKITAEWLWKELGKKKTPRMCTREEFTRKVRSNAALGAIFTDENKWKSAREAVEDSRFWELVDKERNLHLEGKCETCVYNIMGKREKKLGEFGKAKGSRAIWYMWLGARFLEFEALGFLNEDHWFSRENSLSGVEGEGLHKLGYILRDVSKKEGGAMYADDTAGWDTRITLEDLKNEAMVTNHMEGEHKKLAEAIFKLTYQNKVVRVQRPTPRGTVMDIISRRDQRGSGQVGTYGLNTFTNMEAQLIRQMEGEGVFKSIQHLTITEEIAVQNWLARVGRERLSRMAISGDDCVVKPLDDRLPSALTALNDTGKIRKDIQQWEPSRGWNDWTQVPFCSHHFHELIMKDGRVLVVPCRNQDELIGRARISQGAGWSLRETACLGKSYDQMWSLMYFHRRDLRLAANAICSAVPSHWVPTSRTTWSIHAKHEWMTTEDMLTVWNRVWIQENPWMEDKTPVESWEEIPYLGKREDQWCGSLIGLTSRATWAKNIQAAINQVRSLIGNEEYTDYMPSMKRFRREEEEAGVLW

- IC50 [1]: 1.74 µM (active)
- IC50 [4]: > 100 µM (active)
- IC50 [5]: > 80 µM (inactive)
- IC50 [6]: 8.93 µM (active)
- IC50 [7]: 28.9 µM (active)
- IC50 [8]: 2.98 µM (active)
- AC50 [9]: > 30 µM (inactive)
SMILES: Cc1cc(N2C(=O)C(O)=C(C(=O)c3ccc(C)o3)C2c2ccc(OCc3ccccc3)cc2)no1 (configuration not stated)
- CC50 [2]: > 40 µM (active)
- CC50 [3]: > 100 µM (inactive)

SMILES: CC(C)(C)c1ccc(OCCCNCc2ccccc2)cc1
- AC50 [10]: 18.4 µM (active)
- AC50 [11]: 29.7 µM (active)

SMILES: CN(C)c1ccc(O)c2c1CC1CC3[C@@H](N(C)C)C(O)=C(C(N)=O)C(=O)[C@]3(O)C(O)=C1C2=O (some centres not stated)
- EC50 [12]: 0.079 µM (active)
- IC50 [1]: > 109 µM (not active)
- IC50 [13]: 9.39 µM (active)
- IC50 [14]: > 109 µM (not active)
- EC50 [15]: 0.173 µM (active)
- AC50 [16]: 46.2 µM (active)
- AC50 [17]: 25.6 µM (active)
- IC50 [18]: 120 µM (active)
- AC50 [19]: < 0.26 µM (active)
- AC50 [20]: < 0.26 µM (active)
- AC50 [21]: < 0.26 µM (active)
- AC50 [22]: < 0.26 µM (active)
- CC50 [23]: > 40 µM (active)
- AC50 [24]: 11.2 µM (active)
- AC50 [25]: 1.06 µM (active)

SMILES: COc1cccc2c(N3CCN(C(=O)c4ccc(Cl)cc4)CC3)cc(C)nc12
- AC50 [26]: > 260 µM (inactive)

— ChEMBL document CHEMBL1201862, “PubChem BioAssay data set” (2004)
